Results from US20210052719A1, “A UNIVERSAL VACCINE AGAINST INFLUENZA” (Development Center for Biotechnology, priority 2017, published 2021).
No end group written: not given here.

Experiments:
protease = settings: phenylalanine residues of JJ substituted
[1] = antibody generation by immunizing mice with peptide, serum IgG by ELISA; format: in vivo, BALB/c and C57BL/6 mice; settings: for induction of antibody (specific anti-JJ IgG): 5 μg, 15 μg, or 45 μg dose, ELISA with JJ peptide coated, FIG. 2A, 2B
Protocol: In this example, the peptide antigens in accordance with embodiments of the invention were used to induce antibody formation in mice. BALB/c and C57BL/6 mice (6-8 weeks old) were obtained from BioLASCO Taiwan (Taipei, Taiwan) or National Laboratory Animal Center (Taipei, Taiwan).
[…] Each group of mice was injected with a different peptide (Exp0-Exp5) solution as an antigen. For the first immunization, each mouse was given a subcutaneous injection with 100 μL (containing […] each) of the above prepared antigen solution.
The second injection was given 10-14 days after the first injection. The solution for the second injection was prepared by mixing each peptide (6 different peptides, Exp0-Exp5, each at 1:1 mix) in Freund's incomplete adjuvant. The injections were repeated for subsequent immunizations every 10-14 days after the previous injections until antibodies could be detected in sera, which took from 3-6 injections.
Mouse sera were collected at the following time points: preimmunization and at the middle time point between two adjacent injections. Once the antibodies became detectable in sera, the serum collections were performed every two weeks until antibodies could no longer be detected, which typically took about half a year. The serum collections were performed from the cheeks of the mice. Each time, 100 uL or less of blood was collected and the collection frequency was about once every two weeks. At the end of the experiments, mice were euthanized with carbon dioxide.
Antibody titers were determined using ELISA. First, a capture antibody (e.g., JJ peptide or various subtypes of hemagglutinins or fragments thereof) was coated on a 96-well microplate (100 μL per well of the diluted capture antibody). The plate was sealed and incubated at 4° C. overnight. Then, 100 μL of sample (e.g., antiserum) or standards in sample dilution buffer were added per well. […]
(§1) After the reaction, 50 μL of stop solution (acid solution) was added to each well. Then, the optical density of each well was measured immediately, using a microplate reader set to 450 nm.

[2] = tested on: H7 subtype of hemagglutinin; format: binding, influenza virus
[3] = tested on: H1 subtype of hemagglutinin; experiment: ELISA antibody titers against hemagglutinin subtypes; format: binding, influenza virus; settings: FIG. 3
Protocol: (§2) Antibody titers were determined using ELISA. First, a capture antibody (e.g., JJ peptide or various subtypes of hemagglutinins or fragments thereof) was coated on a 96-well microplate (100 μL per well of the diluted capture antibody). The plate was sealed and incubated at 4° C. overnight. Then, 100 μL of sample (e.g., antiserum) or standards in sample dilution buffer were added per well. The plate was sealed and incubated at room temperature for 1 hr.
(§3) After incubation, 100 μL of a detection antibody (e.g., a horseradish peroxidase (HRP) coupled antibody), diluted in antibody dilution buffer, was added to each well. The plate was sealed and incubated at room temperature for 1 hr. Then, 200 μL of substrate solution (3,3′,5,5′-tetramethylbenzidine (TMB)) was added to each well. The reaction mixtures were incubated for 20 minutes at room temperature, without exposing the plate to direct light.
as §1

[4] = tested on: H3 subtype of hemagglutinin; experiment: as above; format: binding, influenza virus; settings: FIG. 3
Protocol: as §2, §3, §1

[5] = tested on: influenza viruses of the H1 subtype; set-up: species or system influenza virus
[6] = tested on: influenza viruses of the H5 subtype; set-up: species or system influenza virus
[7] = tested on: influenza viruses of the H3 subtype; set-up: species or system influenza virus
[8] = tested on: H5 subtype of hemagglutinin; format: binding, influenza virus
JJ peptide = experiment: ELISA cross-reaction of induced IgGs with JJ peptide coated on plate; format: binding; settings: IgGs induced by the peptide, FIG. 2A, 2B
Protocol: as §2, §3, §1

Sequence	protease resistance (protease)	induction of antibody (specific anti-JJ3 IgG) ([1]; higher doses (15 μg and 45 μg), ELISA with peptide JJ-3 coated, FIG. 2C)	reaction of antibodies generated with the peptide with hemagglutinin [2]	reaction of antibodies generated with the peptide with hemagglutinin [3]	reaction of antibodies generated with the peptide with hemagglutinin [4]	inhibition of hemagglutination by induced antibodies [5]	inhibition of hemagglutination by induced antibodies [6]	inhibition of hemagglutination by induced antibodies [7]	reaction of antibodies generated with the peptide with hemagglutinin [8]	binding of induced IgGs to JJ peptide (cross-reaction) (JJ peptide)	induction of antibody (specific anti-JJ IgG) [1]
GLLGAIAGPIEGGW [JJ-3]	protease-resistant	induced the production of specific anti-JJ3 antibodies									
GLLGAIAGPIEF [JJ-1]	protease-resistant		reacted	reacted	reacted	able to inhibit hemagglutination	able to inhibit hemagglutination	able to inhibit hemagglutination	reacted	bind the JJ peptide	efficiently induce IgG production
GLFGAIAGFIE [JJ]			reacted	reacted	reacted	able to inhibit hemagglutination	able to inhibit hemagglutination	able to inhibit hemagglutination	reacted	bind the JJ peptide	induced antibody (IgG) production
GLMGAIAGPIEF [JJ-2]	protease-resistant										
GLHGAIAGLIENGW [JJ-4]	protease-resistant										
